Experimental data as given in publication PMC5218480 (PLoS ONE, 2017).

Test system: MV-4-11 cells
Assay: Gene expression microarray analysis (Affymetrix PrimeView) and GSEA
Format: cell-based, human
Set-up: RFU PODN (11730768_x_at) / Fold change /veh PODN (11730768_x_at) / RFU LINC00158 (11744669_a_at) / Fold change /veh LINC00158 (11744669_a_at) / RFU DUSP10 (11751237_a_at) / Fold change /veh DUSP10 (11751237_a_at) / RFU ID3 (11757404_x_at) / Fold change /veh ID3 (11757404_x_at) / RFU PLEKHG5 (11737974_s_at) / Fold change /veh PLEKHG5 (11737974_s_at) / RFU LRRC4B (11730491_at) / Fold change /veh LRRC4B (11730491_at) / RFU GIMAP4 (11747438_a_at) / Fold change /veh GIMAP4 (11747438_a_at) / RFU KRT8 (11758183_x_at) / Fold change /veh KRT8 (11758183_x_at) / RFU CNN1 (11734310_a_at) / Fold change /veh CNN1 (11734310_a_at) / RFU VPS37D (11726825_at) / Fold change /veh VPS37D (11726825_at) / RFU C10orf10 (11716522_x_at) / Fold change /veh C10orf10 (11716522_x_at) / RFU KIR2DL2 /// KIR2DL4 /// KIR2DL5A /// KIR2DL5B /// KIR2DS1 /// KIR2DS2 /// KIR2DS3 /// KIR2DS4 /// KIR3DL3 /// KIR3DL3 /// KIR3DS1 (11738374_at) / Fold change /veh KIR2DL2 /// KIR2DL4 /// KIR2DL5A /// KIR2DL5B /// KIR2DS1 /// KIR2DS2 /// KIR2DS3 /// KIR2DS4 /// KIR3DL3 /// KIR3DL3 /// KIR3DS1 (11738374_at) / RFU C1QL1 (11718748_at) / Fold change /veh C1QL1 (11718748_at) / RFU TMPRSS4 (11747572_a_at) / Fold change /veh TMPRSS4 (11747572_a_at) / RFU HAMP (11756126_x_at) / Fold change /veh HAMP (11756126_x_at) / RFU RNFT2 (11725882_a_at) / Fold change /veh RNFT2 (11725882_a_at) / RFU NR4A2 (11747474_a_at) / Fold change /veh NR4A2 (11747474_a_at) / RFU ABCC12 (11746883_a_at) / Fold change /veh ABCC12 (11746883_a_at) / RFU TMEM136 (11760407_x_at) / Fold change /veh TMEM136 (11760407_x_at) / RFU CLDN22 /// WWC2 (11732394_at) / Fold change /veh CLDN22 /// WWC2 (11732394_at) / RFU HLA-DPB1 (11760878_x_at) / Fold change /veh HLA-DPB1 (11760878_x_at) / RFU SPINT1 (11716480_a_at) / Fold change /veh SPINT1 (11716480_a_at) / RFU GAP43 (11754022_s_at) / Fold change /veh GAP43 (11754022_s_at) / RFU A4GNT (11735810_at) / Fold change /veh A4GNT (11735810_at) / RFU PRB3 (11715151_x_at) / Fold change /veh PRB3 (11715151_x_at) / RFU TUBB4B (11761932_at) / Fold change /veh TUBB4B (11761932_at) / RFU CAPN14 (11732068_a_at) / Fold change /veh CAPN14 (11732068_a_at) / RFU TMCC2 (11721928_a_at) / Fold change /veh TMCC2 (11721928_a_at) / RFU IRGQ (11745062_a_at) / Fold change /veh IRGQ (11745062_a_at) / RFU FAM174B (11720279_a_at) / Fold change /veh FAM174B (11720279_a_at) / RFU TMPRSS4 (11748680_a_at) / Fold change /veh TMPRSS4 (11748680_a_at) / RFU FAM212B (11763350_a_at) / Fold change /veh FAM212B (11763350_a_at) / RFU PLEKHG5 (11743358_a_at) / Fold change /veh PLEKHG5 (11743358_a_at) / RFU ZSCAN30 (11745921_a_at) / Fold change /veh ZSCAN30 (11745921_a_at) / RFU CMKLR1 (11741424_a_at) / Fold change /veh CMKLR1 (11741424_a_at) / RFU LOC101060620 /// MAPK8IP1 (11723275_at) / Fold change /veh LOC101060620 /// MAPK8IP1 (11723275_at) / RFU SPTSSB (11747773_x_at) / Fold change /veh SPTSSB (11747773_x_at) / RFU PRSS12 (11739890_at) / Fold change /veh PRSS12 (11739890_at) / RFU BIN1 (11741810_x_at) / Fold change /veh BIN1 (11741810_x_at) / RFU WNT11 (11732464_a_at) / Fold change /veh WNT11 (11732464_a_at) / RFU C10orf10 (11716521_a_at) / Fold change /veh C10orf10 (11716521_a_at) / RFU C5orf56 (11738089_at) / Fold change /veh C5orf56 (11738089_at) / RFU CYB561 (11721691_x_at) / Fold change /veh CYB561 (11721691_x_at) / RFU ANKRD19P (11752326_a_at) / Fold change /veh ANKRD19P (11752326_a_at) / RFU OR2T12 /// OR2T33 /// OR2T8 (11738714_s_at) / Fold change /veh OR2T12 /// OR2T33 /// OR2T8 (11738714_s_at) / RFU VCAN (11748164_a_at) / Fold change /veh VCAN (11748164_a_at) / RFU JSRP1 (11732532_at) / Fold change /veh JSRP1 (11732532_at) / RFU KRTAP10-11 (11738290_x_at) / Fold change /veh KRTAP10-11 (11738290_x_at) / RFU MYO3A (11730013_a_at) / Fold change /veh MYO3A (11730013_a_at) / RFU EBF3 (11725865_a_at) / Fold change /veh EBF3 (11725865_a_at) / RFU CAMK2N1 (11719241_x_at) / Fold change /veh CAMK2N1 (11719241_x_at) / RFU C5orf56 (11738088_a_at) / Fold change /veh C5orf56 (11738088_a_at) / RFU OLFML3 (11715873_a_at) / Fold change /veh OLFML3 (11715873_a_at) / RFU LOC100653217 /// NTM (11731650_a_at) / Fold change /veh LOC100653217 /// NTM (11731650_a_at) / RFU MAPK11 (11762145_a_at) / Fold change /veh MAPK11 (11762145_a_at) / RFU FIZ1 (11724087_x_at) / Fold change /veh FIZ1 (11724087_x_at) / RFU OASL (11726364_x_at) / Fold change /veh OASL (11726364_x_at) / RFU SOX15 (11748057_x_at) / Fold change /veh SOX15 (11748057_x_at) / RFU CD79A (11719716_a_at) / Fold change /veh CD79A (11719716_a_at) / RFU HIST1H1D (11736915_at) / Fold change /veh HIST1H1D (11736915_at) / RFU CASKIN2 (11723855_a_at) / Fold change /veh CASKIN2 (11723855_a_at) / RFU LOC730098 (11760151_x_at) / Fold change /veh LOC730098 (11760151_x_at) / RFU OR4N2 (11742367_at) / Fold change /veh OR4N2 (11742367_at) / RFU PRRT2 (11749266_a_at) / Fold change /veh PRRT2 (11749266_a_at) / RFU SNX32 (11753110_a_at) / Fold change /veh SNX32 (11753110_a_at) / RFU CDHR5 (11726645_a_at) / Fold change /veh CDHR5 (11726645_a_at) / RFU RCAN1 (11760418_a_at) / Fold change /veh RCAN1 (11760418_a_at) / RFU FAM167A (11723789_a_at) / Fold change /veh FAM167A (11723789_a_at) / RFU FAM26E (11764081_at) / Fold change /veh FAM26E (11764081_at) / RFU ISYNA1 (11749810_s_at) / Fold change /veh ISYNA1 (11749810_s_at) / RFU ACY1 (11761880_at) / Fold change /veh ACY1 (11761880_at) / RFU 11764098_at / Fold change /veh 11764098_at / RFU SAMD14 (11745864_x_at) / Fold change /veh SAMD14 (11745864_x_at) / RFU NPB (11741838_a_at) / Fold change /veh NPB (11741838_a_at) / RFU TMPRSS6 (11731388_a_at) / Fold change /veh TMPRSS6 (11731388_a_at) / RFU KRTAP10-2 (11738614_at) / Fold change /veh KRTAP10-2 (11738614_at) / RFU ARHGAP8 /// PRR5-ARHGAP8 (11727945_x_at) / Fold change /veh ARHGAP8 /// PRR5-ARHGAP8 (11727945_x_at) / RFU KRTAP5-7 /// NADSYN1 (11734609_at) / Fold change /veh KRTAP5-7 /// NADSYN1 (11734609_at) / RFU RASL12 (11751679_a_at) / Fold change /veh RASL12 (11751679_a_at) / RFU CDKN2B (11736163_a_at) / Fold change /veh CDKN2B (11736163_a_at) / RFU PRF1 (11729649_at) / Fold change /veh PRF1 (11729649_at) / RFU, ZNF638 /// ZNF638-IT1 / Fold change vs veh, ZNF638 /// ZNF638-IT1 / RFU, PANK3 / Fold change vs veh, PANK3 / RFU, SH3YL1 / Fold change vs veh, SH3YL1 / RFU, ZEB2 / Fold change vs veh, ZEB2 / RFU, NRIP1 / Fold change vs veh, NRIP1 / RFU, PTTG1IP / Fold change vs veh, PTTG1IP / RFU, CAPN2 / Fold change vs veh, CAPN2 / RFU, MED14 / Fold change vs veh, MED14 / RFU, SNORA58 / Fold change vs veh, SNORA58 / RFU, C1orf63 / Fold change vs veh, C1orf63 / RFU, LRRFIP1 / Fold change vs veh, LRRFIP1 / RFU, NDUFAF7 / Fold change vs veh, NDUFAF7 / RFU, SLC12A2 / Fold change vs veh, SLC12A2 / RFU, IBTK / Fold change vs veh, IBTK / RFU, ESF1 / Fold change vs veh, ESF1 / Fold change vs veh, TMEM50B / RFU, TAOK1 / Fold change vs veh, TAOK1 / RFU, ACBD3 / Fold change vs veh, ACBD3 / RFU, TMA16 / Fold change vs veh, TMA16 / RFU, RWDD3 / Fold change vs veh, RWDD3 / RFU, BCAT1 / Fold change vs veh, BCAT1 / RFU, EDEM3 / Fold change vs veh, EDEM3 / RFU, TMEM33 / Fold change vs veh, TMEM33 / RFU, WDR75 / Fold change vs veh, WDR75 / RFU, AHCTF1 / Fold change vs veh, AHCTF1 / RFU, TFRC / Fold change vs veh, TFRC / RFU, ZDHHC17 / Fold change vs veh, ZDHHC17 / RFU, NOM1 / Fold change vs veh, NOM1 / RFU, ARL8B / Fold change vs veh, ARL8B / RFU, ZBTB11 / Fold change vs veh, ZBTB11 / RFU, TAMM41 / Fold change vs veh, TAMM41 / RFU, KIAA1704 /// LOC100996395 / Fold change vs veh, KIAA1704 /// LOC100996395 / RFU, ING1 / Fold change vs veh, ING1 / RFU, TRMT61B / Fold change vs veh, TRMT61B / RFU, FUBP3 / Fold change vs veh, FUBP3 / RFU, TP53 / Fold change vs veh, TP53 / RFU, TNKS2 / Fold change vs veh, TNKS2 / RFU, ZFP14 / Fold change vs veh, ZFP14 / RFU, ACTR2 / Fold change vs veh, ACTR2 / RFU, PPP3R1 / Fold change vs veh, PPP3R1 / RFU, PIK3R1 / Fold change vs veh, PIK3R1 / RFU, HNRNPA1 / Fold change vs veh, HNRNPA1 / RFU, RNF170 / Fold change vs veh, RNF170 / RFU, ZNF28 / Fold change vs veh, ZNF28 / RFU, RNGTT / Fold change vs veh, RNGTT / RFU, OGT / Fold change vs veh, OGT / RFU, BRD1 / Fold change vs veh, BRD1 / RFU, MARS / Fold change vs veh, MARS / RFU, ZNF655 / Fold change vs veh, ZNF655 / RFU, FAHD1 / Fold change vs veh, FAHD1 / RFU, BDP1 / Fold change vs veh, BDP1 / RFU, LRRCC1 / Fold change vs veh, LRRCC1 / RFU, ARID1A / Fold change vs veh, ARID1A / RFU, ZNF146 / Fold change vs veh, ZNF146 / RFU, ZNF330 / Fold change vs veh, ZNF330 / RFU, GPN3 / Fold change vs veh, GPN3 / RFU, C9orf123 / Fold change vs veh, C9orf123 / RFU, N4BP2L2 / Fold change vs veh, N4BP2L2 / RFU, ARFIP1 / Fold change vs veh, ARFIP1 / RFU, FAM179B / Fold change vs veh, FAM179B / RFU, BCL10 / Fold change vs veh, BCL10 / RFU, UHRF1BP1L / Fold change vs veh, UHRF1BP1L / RFU, BET1 / Fold change vs veh, BET1 / RFU, CNOT2 / Fold change vs veh, CNOT2 / RFU, ZNF268 / Fold change vs veh, ZNF268 / Fold change vs veh, ZNF507 / RFU, DGCR2 / Fold change vs veh, DGCR2 / RFU, WDSUB1 / Fold change vs veh, WDSUB1 / Fold change vs veh, HSP90B1 /// MIR3652 / RFU, ADSS / Fold change vs veh, ADSS / RFU, GK / Fold change vs veh, GK / RFU, ZNF148 / Fold change vs veh, ZNF148 / RFU, TAF9 / Fold change vs veh, TAF9 / RFU, SLC1A5 / Fold change vs veh, SLC1A5 / RFU, SLMO2 / Fold change vs veh, SLMO2 / RFU, ABCC4 / Fold change vs veh, ABCC4 / RFU, LOC101060439 /// RAP1B / Fold change vs veh, LOC101060439 /// RAP1B / RFU, RFX7 / Fold change vs veh, RFX7 / RFU, GTPBP10 / Fold change vs veh, GTPBP10 / RFU, CNEP1R1 / Fold change vs veh, CNEP1R1 / RFU, BIVM-ERCC5 /// ERCC5 / Fold change vs veh, BIVM-ERCC5 /// ERCC5 / RFU, ILF3 / Fold change vs veh, ILF3 / RFU 11762660_at / Fold change /veh 11762660_at / RFU VCAN (11757783_s_at) / Fold change /veh VCAN (11757783_s_at) / RFU DDX43 (11728927_at) / Fold change /veh DDX43 (11728927_at) / RFU KRT8 (11758188_x_at) / Fold change /veh KRT8 (11758188_x_at) / RFU NKD1 (11759106_at) / Fold change /veh NKD1 (11759106_at) / RFU SRD5A1 (11742802_a_at) / Fold change /veh SRD5A1 (11742802_a_at) / RFU TPSAB1 /// TPSB2 (11721975_s_at) / Fold change /veh TPSAB1 /// TPSB2 (11721975_s_at) / RFU GSTM3 (11746129_a_at) / Fold change /veh GSTM3 (11746129_a_at) / RFU IL23R (11737362_x_at) / Fold change /veh IL23R (11737362_x_at) / RFU TMEM51 (11727254_a_at) / Fold change /veh TMEM51 (11727254_a_at) / RFU PIWIL2 (11732686_x_at) / Fold change /veh PIWIL2 (11732686_x_at) / RFU ORM1 (11744905_x_at) / Fold change /veh ORM1 (11744905_x_at) / RFU CCDC152 (11743942_at) / Fold change /veh CCDC152 (11743942_at) / RFU ECM1 (11717891_a_at) / Fold change /veh ECM1 (11717891_a_at) / RFU IL23R (11748794_a_at) / Fold change /veh IL23R (11748794_a_at) / RFU TNFAIP8L3 (11732012_x_at) / Fold change /veh TNFAIP8L3 (11732012_x_at) / RFU MBOAT4 (11741988_at) / Fold change /veh MBOAT4 (11741988_at) / RFU 11764193_at / Fold change /veh 11764193_at / RFU TMEM53 (11763286_at) / Fold change /veh TMEM53 (11763286_at) / RFU MAGEB2 (11727129_at) / Fold change /veh MAGEB2 (11727129_at) / RFU TMEM200A (11744735_a_at) / Fold change /veh TMEM200A (11744735_a_at) / RFU CCDC152 (11751479_a_at) / Fold change /veh CCDC152 (11751479_a_at) / RFU FAM211A (11726209_a_at) / Fold change /veh FAM211A (11726209_a_at) / RFU RGS16 (11746705_a_at) / Fold change /veh RGS16 (11746705_a_at) / RFU VCAN (11755009_s_at) / Fold change /veh VCAN (11755009_s_at) / RFU RHOB (11743442_s_at) / Fold change /veh RHOB (11743442_s_at) / RFU RGS16 (11720943_a_at) / Fold change /veh RGS16 (11720943_a_at) / RFU RGS16 (11720944_at) / Fold change /veh RGS16 (11720944_at) / RFU, VPS4B / Fold change vs veh, VPS4B / RFU, CREB1 / Fold change vs veh, CREB1 / RFU, DNAJC13 / Fold change vs veh, DNAJC13 / RFU, GNAQ / Fold change vs veh, GNAQ / RFU, CDK5R1 / Fold change vs veh, CDK5R1 / RFU, ZRANB3 / Fold change vs veh, ZRANB3 / RFU, CUL4A / Fold change vs veh, CUL4A / RFU, CCNY / Fold change vs veh, CCNY / RFU, UFL1 / Fold change vs veh, UFL1 / RFU, COG3 / Fold change vs veh, COG3 / RFU, DIAPH2 / Fold change vs veh, DIAPH2 / RFU, SKA2 / Fold change vs veh, SKA2 / RFU, AFF3 / Fold change vs veh, AFF3 / RFU, LMF1 / Fold change vs veh, LMF1 / RFU, IPO11 / Fold change vs veh, IPO11 / RFU, DFFB / Fold change vs veh, DFFB / RFU, FOXP1 / Fold change vs veh, FOXP1 / RFU, CARD8 / Fold change vs veh, CARD8 / RFU, STRN3 / Fold change vs veh, STRN3 / RFU, ADK / Fold change vs veh, ADK / RFU, RASSF2 / Fold change vs veh, RASSF2 / RFU, WIPF1 / Fold change vs veh, WIPF1 / RFU, LARP1B / Fold change vs veh, LARP1B / RFU, RASA1 / Fold change vs veh, RASA1 / RFU, RB1 / Fold change vs veh, RB1 / RFU, PPFIA1 / Fold change vs veh, PPFIA1 / RFU, MAT2A / Fold change vs veh, MAT2A / RFU, CCT5 / Fold change vs veh, CCT5 / RFU, WDR92 / Fold change vs veh, WDR92 / RFU, CUX1 / Fold change vs veh, CUX1 / RFU, TTC7A / Fold change vs veh, TTC7A / RFU, TMEM135 / Fold change vs veh, TMEM135 / RFU, DEPTOR / Fold change vs veh, DEPTOR / RFU, CPM / Fold change vs veh, CPM / RFU, DNAJB6 / Fold change vs veh, DNAJB6 / RFU, CACNA2D3 / Fold change vs veh, CACNA2D3 / RFU, DTX4 / Fold change vs veh, DTX4 / RFU, TFCP2 / Fold change vs veh, TFCP2 / RFU, GMCL1 /// GMCL1P1 / Fold change vs veh, GMCL1 /// GMCL1P1 / RFU, AEBP2 / Fold change vs veh, AEBP2 / RFU, SNHG1 /// SNORD22 /// SNORD25 /// SNORD26 /// SNORD27 /// SNORD28 /// SNORD29 /// SNORD31 / Fold change vs veh, SNHG1 /// SNORD22 /// SNORD25 /// SNORD26 /// SNORD27 /// SNORD28 /// SNORD29 /// SNORD31 / Fold change (Aza/veh), C12orf56 (ProbeSet 11735607_a_at) / Fold change (ACY-1035/veh), C12orf56 (ProbeSet 11735607_a_at) / Fold change (Aza/veh), FGFR1OP (ProbeSet 11751329_s_at) / Fold change (ACY-1035/veh), FGFR1OP (ProbeSet 11751329_s_at) / Fold change (Aza/veh), VPS36 (ProbeSet 11739960_a_at) / Fold change (ACY-1035/veh), VPS36 (ProbeSet 11739960_a_at) / RFU SYPL1 (11715823_x_at) / Fold change /veh SYPL1 (11715823_x_at) / RFU IGFBP7 (11715501_s_at) / Fold change /veh IGFBP7 (11715501_s_at) / RFU REEP3 (11722064_at) / Fold change /veh REEP3 (11722064_at) / RFU IGLL1 (11728026_x_at) / Fold change /veh IGLL1 (11728026_x_at): dose or concentration left out as unconfirmed
Conditions: ProbeSet 11753623_s_at; LIST D

Nc1ccc(-c2cccs2)cc1NC(=O)c1ccc2c(c1)cc(C1CC1)n2CCN1CCOCC1 [ACY-1035]
Fold change vs veh, LOC101060439 /// RAP1B: 0.85
